Measurements as given in US9295673B2, “Combination of mTOR inhibitors and P13-kinase inhibitors, and uses thereof” (Intellikine LLC, priority 2011, dated 2016).
Read-outs that look alike come from different tables or passages of the source.

Legend:
[1] = target: PI3K δ (Homo sapiens, UniProt O00329); assay: PI 3-Kinase (human) HTRF assay, PI3K δ; conditions: read-out: PI3K δ IC50
Experimental: (§1) An exemplary system is PI 3-Kinase (human) HTRF™ Assay from Upstate. […] Briefly, the assay is a time resolved FRET assay that indirectly measures PIP3 product formed by the activity of a PI3-K. The kinase reaction is performed in a microtitre plate (e.g., a 384 well microtitre plate). The total reaction volume is approximately 20 ul per well. In the first step, each well receives 2 ul of test compound in 20% dimethylsulphoxide resulting in a 2% DMSO final concentration. […] The plate is sealed and incubated for 15 minutes at room temperature. […] The plate is sealed and incubated for 1 hour at room temperature. The reaction is stopped by adding 5 ul of Stop Solution per well and then 5 ul of Detection Mix is added per well. The plate is sealed, incubated for 1 hour at room temperature, and then read on an appropriate plate reader. Data is analyzed and IC50s are generated using GraphPad Prism 5.

[2] = target: PI3K α (Homo sapiens, UniProt P42336); assay: PI 3-Kinase (human) HTRF assay, PI3K α; conditions: read-out: PI3K α IC50
Chain of PI3K α (P42336 whole entry): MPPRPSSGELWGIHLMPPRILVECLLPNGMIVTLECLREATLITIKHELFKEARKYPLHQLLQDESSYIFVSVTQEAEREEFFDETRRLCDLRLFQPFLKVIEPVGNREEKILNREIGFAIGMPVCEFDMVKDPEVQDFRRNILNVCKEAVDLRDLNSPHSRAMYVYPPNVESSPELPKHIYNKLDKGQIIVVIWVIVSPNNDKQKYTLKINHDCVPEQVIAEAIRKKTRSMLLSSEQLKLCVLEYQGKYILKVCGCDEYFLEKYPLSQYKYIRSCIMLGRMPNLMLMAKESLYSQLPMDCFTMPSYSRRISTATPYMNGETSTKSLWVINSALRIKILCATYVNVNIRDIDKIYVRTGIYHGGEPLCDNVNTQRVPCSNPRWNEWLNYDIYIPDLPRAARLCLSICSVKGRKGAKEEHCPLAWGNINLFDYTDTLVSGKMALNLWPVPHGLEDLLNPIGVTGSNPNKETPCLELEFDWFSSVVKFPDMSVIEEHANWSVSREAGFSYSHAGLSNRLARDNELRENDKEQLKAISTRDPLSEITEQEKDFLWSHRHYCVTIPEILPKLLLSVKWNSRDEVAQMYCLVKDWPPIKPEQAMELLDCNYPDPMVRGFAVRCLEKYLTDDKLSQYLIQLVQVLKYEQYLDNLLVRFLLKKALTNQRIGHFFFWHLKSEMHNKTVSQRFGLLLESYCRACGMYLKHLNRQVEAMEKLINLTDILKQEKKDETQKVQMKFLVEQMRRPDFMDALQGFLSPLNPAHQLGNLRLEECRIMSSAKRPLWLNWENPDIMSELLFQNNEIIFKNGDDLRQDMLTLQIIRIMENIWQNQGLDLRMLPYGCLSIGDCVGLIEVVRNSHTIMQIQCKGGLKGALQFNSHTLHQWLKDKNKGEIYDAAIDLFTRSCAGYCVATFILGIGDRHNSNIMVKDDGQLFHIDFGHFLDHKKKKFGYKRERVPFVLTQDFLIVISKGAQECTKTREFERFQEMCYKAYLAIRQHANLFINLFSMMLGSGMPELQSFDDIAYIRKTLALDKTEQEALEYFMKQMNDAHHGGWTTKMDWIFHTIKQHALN
Chain of PI3K α (P27986 whole entry partner): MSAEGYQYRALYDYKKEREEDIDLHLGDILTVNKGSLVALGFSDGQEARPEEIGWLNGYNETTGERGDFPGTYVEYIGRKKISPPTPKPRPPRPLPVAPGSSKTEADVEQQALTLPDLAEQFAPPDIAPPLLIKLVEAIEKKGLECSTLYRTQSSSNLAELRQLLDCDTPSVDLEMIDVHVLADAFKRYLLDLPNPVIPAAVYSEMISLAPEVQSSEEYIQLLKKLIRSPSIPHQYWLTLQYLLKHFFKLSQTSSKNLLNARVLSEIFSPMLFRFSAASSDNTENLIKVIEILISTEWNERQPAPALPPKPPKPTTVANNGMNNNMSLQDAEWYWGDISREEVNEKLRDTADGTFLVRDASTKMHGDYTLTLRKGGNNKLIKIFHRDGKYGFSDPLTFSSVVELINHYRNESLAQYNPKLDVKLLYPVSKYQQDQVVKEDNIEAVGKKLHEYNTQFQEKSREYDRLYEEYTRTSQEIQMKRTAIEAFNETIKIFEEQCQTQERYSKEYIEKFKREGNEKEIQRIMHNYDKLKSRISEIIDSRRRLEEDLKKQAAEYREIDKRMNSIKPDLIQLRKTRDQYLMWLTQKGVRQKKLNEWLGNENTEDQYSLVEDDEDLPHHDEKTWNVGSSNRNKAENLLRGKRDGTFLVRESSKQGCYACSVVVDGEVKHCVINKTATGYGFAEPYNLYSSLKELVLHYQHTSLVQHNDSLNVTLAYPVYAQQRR
Experimental: as §1

[3] = target: T1, mTOR (Homo sapiens, UniProt P42345); assay: mTOR kinase inhibition assay (radiometric or LanthaScreen TR-FRET); format: biochemical; conditions: read-out: mTORC IC50
T1 construct: purchased Invitrogen

[4] = target: PI3K γ (Homo sapiens, UniProt P48736); assay: PI 3-Kinase (human) HTRF assay, PI3K γ; conditions: read-out: PI3K γ IC50
Chain of PI3K γ (P48736 whole entry): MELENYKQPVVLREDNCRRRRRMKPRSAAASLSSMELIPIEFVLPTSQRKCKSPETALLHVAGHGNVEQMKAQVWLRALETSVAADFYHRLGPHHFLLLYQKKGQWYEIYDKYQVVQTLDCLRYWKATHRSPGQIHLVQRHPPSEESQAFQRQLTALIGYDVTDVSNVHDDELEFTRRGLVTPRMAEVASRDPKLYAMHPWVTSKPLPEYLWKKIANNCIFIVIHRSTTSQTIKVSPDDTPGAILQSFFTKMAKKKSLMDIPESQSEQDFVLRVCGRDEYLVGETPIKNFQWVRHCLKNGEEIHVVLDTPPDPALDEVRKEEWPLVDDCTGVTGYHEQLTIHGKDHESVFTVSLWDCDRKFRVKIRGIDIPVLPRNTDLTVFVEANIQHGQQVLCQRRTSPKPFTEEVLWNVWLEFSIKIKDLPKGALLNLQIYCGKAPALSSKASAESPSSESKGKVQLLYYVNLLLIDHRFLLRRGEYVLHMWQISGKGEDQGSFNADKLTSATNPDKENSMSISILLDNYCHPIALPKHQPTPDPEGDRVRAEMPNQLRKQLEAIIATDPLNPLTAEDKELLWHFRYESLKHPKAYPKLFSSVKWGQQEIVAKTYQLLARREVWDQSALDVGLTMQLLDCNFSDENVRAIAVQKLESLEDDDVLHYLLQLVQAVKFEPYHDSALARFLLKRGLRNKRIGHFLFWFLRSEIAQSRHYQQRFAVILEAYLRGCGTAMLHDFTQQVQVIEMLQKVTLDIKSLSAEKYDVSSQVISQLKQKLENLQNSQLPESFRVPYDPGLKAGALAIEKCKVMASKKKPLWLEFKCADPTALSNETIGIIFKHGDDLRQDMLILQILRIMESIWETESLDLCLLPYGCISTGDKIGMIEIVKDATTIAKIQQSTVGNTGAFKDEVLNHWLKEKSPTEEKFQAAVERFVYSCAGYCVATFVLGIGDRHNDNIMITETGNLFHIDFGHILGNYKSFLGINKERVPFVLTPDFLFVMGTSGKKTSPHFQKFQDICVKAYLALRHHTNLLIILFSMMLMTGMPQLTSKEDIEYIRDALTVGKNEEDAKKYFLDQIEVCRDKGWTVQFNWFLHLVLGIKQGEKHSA

[5] = target: PI3K β (Homo sapiens, UniProt P42338); assay: PI 3-Kinase (human) HTRF assay, PI3K β; conditions: read-out: PI3K β IC50
Chain of PI3K β (P42338 whole entry): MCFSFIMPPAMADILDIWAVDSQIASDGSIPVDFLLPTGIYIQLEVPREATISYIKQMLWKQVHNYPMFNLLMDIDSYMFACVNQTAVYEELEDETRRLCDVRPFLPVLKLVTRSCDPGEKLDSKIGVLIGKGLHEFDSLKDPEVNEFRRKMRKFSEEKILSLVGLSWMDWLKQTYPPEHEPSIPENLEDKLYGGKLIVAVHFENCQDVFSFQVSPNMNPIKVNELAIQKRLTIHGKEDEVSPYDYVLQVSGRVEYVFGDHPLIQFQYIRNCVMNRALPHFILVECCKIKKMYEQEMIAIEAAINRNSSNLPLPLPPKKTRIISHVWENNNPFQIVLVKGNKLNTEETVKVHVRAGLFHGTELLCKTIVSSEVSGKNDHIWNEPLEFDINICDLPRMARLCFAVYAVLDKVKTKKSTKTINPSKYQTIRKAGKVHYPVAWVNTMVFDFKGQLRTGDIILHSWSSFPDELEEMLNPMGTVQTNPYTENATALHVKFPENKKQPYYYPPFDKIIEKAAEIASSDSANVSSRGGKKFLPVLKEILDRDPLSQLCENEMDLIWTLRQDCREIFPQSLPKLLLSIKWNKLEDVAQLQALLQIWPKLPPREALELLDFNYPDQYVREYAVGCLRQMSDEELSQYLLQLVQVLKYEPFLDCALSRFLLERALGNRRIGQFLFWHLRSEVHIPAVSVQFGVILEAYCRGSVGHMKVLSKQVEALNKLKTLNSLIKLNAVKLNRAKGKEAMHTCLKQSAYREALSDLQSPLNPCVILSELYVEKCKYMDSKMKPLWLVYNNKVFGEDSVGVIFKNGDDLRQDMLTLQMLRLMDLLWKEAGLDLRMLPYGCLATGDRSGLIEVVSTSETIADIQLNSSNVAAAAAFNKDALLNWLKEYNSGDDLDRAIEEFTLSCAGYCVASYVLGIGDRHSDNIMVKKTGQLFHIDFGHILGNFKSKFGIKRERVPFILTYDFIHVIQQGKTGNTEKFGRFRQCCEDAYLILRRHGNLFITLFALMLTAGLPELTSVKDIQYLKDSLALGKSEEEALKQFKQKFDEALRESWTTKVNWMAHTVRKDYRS
Chain of PI3K β (P27986 whole entry partner): as the sequence (P27986 whole entry partner) above
Experimental: as §1

Chain of PI3K δ (O00329 whole entry): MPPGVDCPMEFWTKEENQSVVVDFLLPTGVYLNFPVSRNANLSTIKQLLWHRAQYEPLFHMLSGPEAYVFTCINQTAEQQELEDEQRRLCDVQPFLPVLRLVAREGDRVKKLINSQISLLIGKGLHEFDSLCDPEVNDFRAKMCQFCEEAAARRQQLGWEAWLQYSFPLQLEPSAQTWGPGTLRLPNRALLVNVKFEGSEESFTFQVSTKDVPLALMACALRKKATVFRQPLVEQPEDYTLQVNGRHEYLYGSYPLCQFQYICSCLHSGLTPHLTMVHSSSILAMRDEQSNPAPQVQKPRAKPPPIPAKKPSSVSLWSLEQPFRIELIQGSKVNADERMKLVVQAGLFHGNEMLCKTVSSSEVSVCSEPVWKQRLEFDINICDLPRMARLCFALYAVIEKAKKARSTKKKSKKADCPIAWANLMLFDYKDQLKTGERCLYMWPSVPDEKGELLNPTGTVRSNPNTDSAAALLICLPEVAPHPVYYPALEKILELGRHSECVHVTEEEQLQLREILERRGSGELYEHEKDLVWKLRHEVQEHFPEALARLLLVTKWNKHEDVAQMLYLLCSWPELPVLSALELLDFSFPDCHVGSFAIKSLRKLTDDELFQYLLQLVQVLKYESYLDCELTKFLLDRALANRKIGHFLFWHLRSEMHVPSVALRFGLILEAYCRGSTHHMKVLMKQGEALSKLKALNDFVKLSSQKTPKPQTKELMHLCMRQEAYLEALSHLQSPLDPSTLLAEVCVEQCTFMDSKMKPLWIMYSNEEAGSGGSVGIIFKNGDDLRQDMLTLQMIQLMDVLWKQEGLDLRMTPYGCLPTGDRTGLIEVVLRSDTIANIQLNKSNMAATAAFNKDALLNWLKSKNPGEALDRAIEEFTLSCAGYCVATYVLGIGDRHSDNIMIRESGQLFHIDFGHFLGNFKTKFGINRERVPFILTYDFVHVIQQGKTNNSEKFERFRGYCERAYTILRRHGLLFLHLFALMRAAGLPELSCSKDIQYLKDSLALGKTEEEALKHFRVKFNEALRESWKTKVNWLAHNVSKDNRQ
Chain of PI3K δ (P27986 whole entry partner): as the sequence (P27986 whole entry partner) above

## CC(C)n1nc(-c2cc3cc(O)c(Cl)cc3[nH]2)c2c(N)ncnc21 [Compound 32]
[1]
  IC50: > 500 nM
[2]
  IC50: > 500 nM
[3]; Table 2
  IC50: < 500 nM
[4]; Table 2
  IC50: > 500 nM

## Nc1ncnc2c1c(-c1cc3cc(O)ccc3[nH]1)nn2CCN1CCOCC1 [Compound 33]
[1]; Table 2
  IC50: > 500 nM
[2]; Table 2
  IC50: > 500 nM
[3]; Table 2
  IC50: < 500 nM
[4]; Table 2
  IC50: > 500 nM

## Nc1ncnc2c1c(-c1cc3cc(O)ccc3[nH]1)nn2CC(=O)N1CCOCC1 [Compound 34]
[1]
  IC50: > 500 nM
[2]
  IC50: > 500 nM
[3]; Table 2
  IC50: > 500 nM
[4]
  IC50: > 500 nM

## CNC(=O)Cn1nc(-c2cc3cc(O)ccc3[nH]2)c2c(N)ncnc21 [Compound 35]
[1]
  IC50: > 500 nM
[2]
  IC50: > 500 nM
[3]; Table 2
  IC50: > 500 nM
[4]; Table 2
  IC50: > 500 nM

## Nc1ncnc2c1c(-c1cc3cccc(O)c3[nH]1)nn2C1CCCC1 [Compound 36]
[1]; Table 2
  IC50: 100 to 500 nM
[2]; Table 2
  IC50: > 500 nM
[3]; Table 2
  IC50: < 10 nM
[4]; Table 2
  IC50: 50 to 100 nM

## Nc1ncnc2c1c(-c1cc3cc(O)ccc3[nH]1)nn2Cc1cccnc1 [Compound 38]
[1]; Table 2
  IC50: > 500 nM
[2]; Table 2
  IC50: > 500 nM
[3]; Table 2
  IC50: < 500 nM
[4]
  IC50: > 500 nM

## CC(C)n1nc(-c2cc3c(Cl)ccc(O)c3[nH]2)c2c(N)ncnc21 [Compound 39]
[1]; Table 2
  IC50: > 500 nM
[2]; Table 2
  IC50: > 500 nM
[3]; Table 2
  IC50: < 10 nM
[4]
  IC50: > 500 nM

## COCCn1nc(-c2cc3cc(O)ccc3[nH]2)c2c(N)ncnc21 [Compound 40]
[1]
  IC50: > 500 nM
[2]; Table 2
  IC50: > 500 nM
[3]; Table 2
  IC50: < 100 nM
[4]; Table 2
  IC50: > 500 nM

## Nc1ncnc2c1c(-c1cc3cccc(O)c3[nH]1)nn2C1CCN(C(=O)C2CC2)CC1 [Compound 41]
[1]; Table 2
  IC50: > 500 nM
[2]; Table 2
  IC50: > 500 nM
[3]; Table 2
  IC50: < 10 nM
[4]
  IC50: 25 to 50 nM
[5]; Table 2
  IC50: > 500 nM

## Nc1ncnc2c1c(-c1cc3cc(O)ccc3[nH]1)nn2C1CC(N2CCOCC2)C1 (centres unmarked) [Compound 49]
[1]
  IC50: 100 to 500 nM
[2]
  IC50: > 500 nM
[3]; Table 2
  IC50: < 10 nM
[4]; Table 2
  IC50: 100 to 500 nM
[5]; Table 2
  IC50: > 500 nM

## CC(C)n1nc(-c2cc3cccc(Cl)c3[nH]2)c2c(N)ncnc21 [Compound 50]
[1]
  IC50: 100 to 500 nM
[2]; Table 2
  IC50: > 500 nM
[3]; Table 2
  IC50: < 50 nM
[4]; Table 2
  IC50: 100 to 500 nM
[5]; Table 2
  IC50: > 500 nM

## Nc1ncnc2c1c(-c1cc3cc(O)ccc3[nH]1)nn2C1CC(=O)C1 [Compound 53]
[2]
  IC50: > 500 nM
[3]; Table 2
  IC50: < 100 nM
[4]; Table 2
  IC50: > 500 nM
[5]; Table 2
  IC50: > 500 nM

## Nc1ncnc2c1c(-c1cc3cc(O)ccc3[nH]1)nn2C1CC(O)C1 (centres unmarked) [Compound 54]
[2]; Table 2
  IC50: > 500 nM
[3]; Table 2
  IC50: < 25 nM
[4]; Table 2
  IC50: > 500 nM
[5]; Table 2
  IC50: > 500 nM

## CC(C)N1CCC(n2nc(-c3cc4cc(O)ccc4[nH]3)c3c(N)ncnc32)CC1 [Compound 55]
[2]; Table 2
  IC50: > 500 nM
[3]; Table 2
  IC50: < 500 nM
[4]; Table 2
  IC50: > 500 nM
[5]; Table 2
  IC50: > 500 nM

## CC(C)N1CCC(n2nc(-c3cc4cc(O)cc(Cl)c4[nH]3)c3c(N)ncnc32)CC1 [Compound 56]
[2]
  IC50: > 500 nM
[3]; Table 2
  IC50: > 500 nM
[4]; Table 2
  IC50: > 500 nM
[5]; Table 2
  IC50: > 500 nM

## Nc1ncnc2c1c(-c1cc3cc(O)ccc3[nH]1)nn2C1CCC(N2CCOCC2)CC1 (centres unmarked) [Compound 57]
[2]; Table 2
  IC50: > 500 nM
[3]; Table 2
  IC50: < 25 nM
[4]; Table 2
  IC50: > 500 nM
[5]; Table 2
  IC50: > 500 nM

## CN1CCN(C2CCC(n3nc(-c4cc5cc(O)ccc5[nH]4)c4c(N)ncnc43)CC2)CC1 (centres unmarked) [Compound 58]
[2]
  IC50: > 500 nM
[3]; Table 2
  IC50: > 500 nM
[4]; Table 2
  IC50: > 500 nM
[5]; Table 2
  IC50: > 500 nM

## COc1ccc2cc(-c3nn(C4CCOCC4)c4ncnc(N)c34)[nH]c2c1 [Compound 59]
[2]; Table 2
  IC50: > 500 nM
[3]; Table 2
  IC50: > 500 nM
[4]; Table 2
  IC50: > 500 nM
[5]; Table 2
  IC50: > 500 nM

## Nc1ncnc2c1c(-c1cc3ccc(O)cc3[nH]1)nn2C1CCOCC1 [Compound 60]
[2]; Table 2
  IC50: > 500 nM
[3]; Table 2
  IC50: < 100 nM
[4]; Table 2
  IC50: 50 to 100 nM
[5]; Table 2
  IC50: > 500 nM

## CC(C)[C@@H](N)C(=O)N1CCN(c2cnc3ccc(-c4ccc5oc(N)nc5c4)cc3n2)CC1 [Compound 270]
[1]
  IC50: < 1000 nM
[2]
  IC50: < 100 nM
[3]
  IC50: < 10000 nM
[5]
  IC50: < 1000 nM
